Assay results reported in PMC12677843, “Multidisciplinary Preclinical Investigations on Ferrocenyl, Ruthenocenyl, and Benzyl Derivatives of Niridazole as New Drug Candidates against Schistosomiasis” (Chemmedchem, 2025).
“Also recorded” adds a separate entry of the source.

Legend:
[1] = test system: adult S. mansoni; test: In vitro drug sensitivity assay on adult S. mansoni (microscopic viability scoring); assay type: cell-based, Schistosoma mansoni; details: for drug effect at 50 µM on adult S. mansoni: 72 h incubation, normalized to DMSO control, active if ≥60%; for EC50: 72 h drug exposure, 37 °C, 5% CO2, read-out: EC50 on adult S. mansoni, 72 h
Experimental: Figure 3 In vitro activity at 50 µM of the 12 compounds on adult S. mansoni. Adult schistosomes were incubated in culture media for 72 h at 37 °C and 5% CO2 with either compound (50 µM) or a DMSO (0.5%) control. The viability of the worms was microscopically evaluated and scored (0—3, in 0.5 steps) every 24 h. Results are from two independent experiments, each performed in duplicate. Drug activities were normalized to the DMSO controls. Data represent mean ± SD in percentage of DMSO control. […]
In vitro evaluation on adult S. mansoni
After a week for acclimatization to the new environment with controlled conditions (temperature: 22 °C ± 2 °C, humidity: 50 % ± 10 %, 12:12 h light/dark photocycle), four-week-old female NMRI mice (Charles River, Sulzfeld, Germany) were subcutaneously infected with approximately 100 cercariae to establish the S. mansoni infection. In the S. mansoni infected mice the worms were allowed to develop for 7 weeks into the adult stage, before they were extracted from the mesenteric veins of the euthanized mice. The adult worms were placed into RPMI 1640 (Gibco, Waltham MA, USA) medium supplemented with 1 % penicillin/streptomycin mixture and 5 % iFCS at 37 °C and 5 % CO 2. The drug sensitivity assay was set up in a 24-well plate with two wells containing each two pairs of S. mansoni worms per compound and concentration.
The final volume per well was 2 mL, containing the culture medium and the corresponding amount of drug dissolved in DMSO. The maximum concentration tested was 50 µM, corresponding to 0.5 % DMSO, to which all the other wells were adapted […]
to, so that all test concentrations contained always the same amount of DMSO.
Additionally, 2 wells with negative controls containing only DMSO and the culture medium were included. After an incubation period of 72 h at 37 °C and 5 % CO 2, the worms were microscopically evaluated. The drug effect was determined 24, 48 and 72 h post-exposure based on the phenotype of the adult worms, using a viability scale ranging from three referring to viable, motile worms with no change in their tegument to zero standing for the death of the worms.
All described in vitro studies with mice involved, were conducted at the Swiss Tropical and Public Health Institute, first in Basel, later in Allschwil, and had the approval by the corresponding veterinary authorities of the Canton Basel-Stadt (permit no. 2070)

[2] = test system: S. mansoni newly transformed schistosomula (NTS); test: In vitro evaluation on newly transformed schistosomula (NTS); assay type: cell-based, Schistosoma mansoni; details: for EC50: 72 h incubation, 37 °C, 5% CO2
Experimental: 2. Experimental section for biological experiments
Stock solutions of the test compounds
Stock solution of a concentration of 10 mM in pure DMSO (Sigma-Aldrich, Switzerland) were prepared of the 12 compounds, these stock solutions were used for all in vitro evaluations from activity tests in S. mansoni to the cytotoxic determinations in HUH7 hepatocyte-derived carcinoma cells, and in SH-SY5Y neuroblastoma cells.
The solutions were thoroughly vortexed and sonicated to enable a good dissolution of the compounds and homogenous stock solutions.
2.1 In vitro evaluations in S. mansoni
In vitro evaluation on newly transformed schistosomula (NTS)
To obtain newly transformed schistosomula (NTS) the lifecycle of S. mansoni (strain originates from West Africa, Liberia) is maintained at the Swiss Tropical and Public Health Institute (Swiss TPH). As previously described, cercariae are collected from infected Biomphalaria glabrata snails and then mechanically transformed into NTS. 8 After HBSS (Gibco, Waltham MA, USA) washing to get rid of the detached tails, the NTS were kept overnight (min. 12 h, max. 24 h) in culture medium at 37 °C and 5 % CO2 to complete their transformation process, before the drug sensitivity assay was started. The drug assays were performed in the same culture medium consisting of medium M199 (Gibco, Waltham MA, USA) supplemented with 5 % v/v inactivated fetal calf serum (iFCS; Bioconcept AG, Allschwil, Switzerland), 1% antibiotics mixture developed by Mäser et al., 9 and 1 % penicillin 10,000 U/mL, and streptomycin 10 mg/mL solution (Sigma-Aldrich, Buchs, Switzerland). The assay was performed in a 96-well plate, with 30−40 NTS per well in a final volume of 250 μL. NTS incubated in culture medium containing 0.5 % DMSO but no drug served as negative controls.
Microscopic evaluation was performed after 24, 48 and 72 h of incubation of the parasites at 37 °C and 5 % CO 2. Their overall viability was scored from 0 (death) to 3 (full viability) by a phenotypic screening method based on their motility, morphology, […]
and granularity. […]

[3] = test system: SH-SY5Y cells; test: SYTOX cell viability assay, SH-SY5Y; assay type: cell-based, human; details: 20 µM, 24 h, serum-free charcoal-treated medium, vs DMSO control (0.2%), mean
Experimental: The SYTOX cell viability assay was performed in SHSY5Y cells. Cells were treated with either compound (20 µM) or DMSO control (0.2%) for 24 h at 37 °C and 5% CO2 in serum‐free charcoal‐treated medium. Results were normalized to the DMSO control. Mean ± SD was calculated from three independent experiments, each performed in quadruplicate. […]
serum-free media containing either treatment at a concentration of 20 µM or DMSO (ITW Reagents Cat A3672) control (0.2 %).
Following 24 h of incubation, 12.5 μL of an XTT/phenazine methosulfate (PMS) (XTT Sigma Aldrich cat X4626, PMS Serva CAT: 3203) 0.02solution (1 mg/mL XTT and 7.5 μg/mL PMS) was added to each well. Absorbance was measured using a microplate reader (Biotek Synergy HT) at 450 nm (signal) and 650 nm (background), 2 h after the addition of the XTT/PMS solution. Individual backgrounds were subtracted and all results were normalized to DMSO control. Mean ± SD was determined from three independent experiments, each performed in quintuplicate.
SYTOX cell viability assay
The cytotoxic potential was additionally evaluated using the staining-based SYTOX viability assay. […] Data was acquired on the BioTeck Cytation5 microscope and evaluated by the manufacturer’s software (Gen5 Image Prime Version 3.12). […] Mean ± SD was determined from three independent experiments, each performed in quadruplicate. […]

[4] = Stability of A2 in DMSO-d6 with D2O (4:1) by 1H NMR; assay type: physicochemical; details: Figure S36; DMSO-d6 with D2O (4:1, v/v)
Experimental: Figure S31 DEPT spectrum of C2
1H NMR spectra for stability
Preparation of the control samples for 1H NMR analysis: Compounds B1, D1, A3 and
C2 were dissolved in DMSO- d6. Compound A2 was dissolved in DMSO- d6 with D2O
(4:1, v/v). NMR spectra were recorded in deuterated solvents on Bruker Avance-400
in the room temperature for 0, 6, 24, 30 and 48 hours or 0, 3, 6 and 24 hours. […]

[5] = test system: juvenile S. mansoni; test: In vitro drug sensitivity assay on juvenile S. mansoni; assay type: cell-based, Schistosoma mansoni; details: 72 h incubation, 37 °C, 5% CO2
Experimental: Juvenile worms were gained through cultivation of NTS as previously described. 10 In short, NTS were obtained as described above, then directly after the mechanical transformation process the newly transformed schistosomula were placed in a special culturing medium. The culture medium consists of Panserin 401, w: L-Glutamine, serum free all-round medium (Pan Biotech, Aidenbach, Germany) supplemented with 20 % human serum and 500 U/mL penicillin, […] streptomycin (LuBioScience, Switzerland). 96-well transparent polystyrene flat bottom plates were used for the in vitro growth procedure, with 40 to 60 NTS per well in 100 µL culture medium. The bordering wells of the plate were filled solely with medium to counteract evaporation and to keep the humidity as steady as possible. The plates were incubated for 21 days at 5 % CO2 and at 37 °C, with regular medium changes every 3 to 4 days. After the 21 days culturing period, the schistosomulae developed into juveniles. For the drug sensitivity assay, juvenile worms were incubated over 72 h (5 % CO 2 and 37 °C) with the test compound in the same medium, as used for the culturing process. In a 96-well plate, 250 µL medium containing the test compound and six juvenile worms, ideally of both sexes were placed in each well. All compounds were tested twice independently at 50, 10, 5 and 1 µM in duplicates. The viability of the worms was evaluated microscopically after 24, 48 and 72 h of continuous drug exposure using the same phenotypic screening method as described before. […]

SMILES	drug effect at 50 µM on adult S. mansoni [1]	EC50 [1]	EC50 [2]	drug effect at 50 µM on S. mansoni NTS ([2]; highest tested concentration 50 µM)	reduction of SH-SY5Y cell viability (SYTOX) [3]	stability under warm and moist conditions [4]	mean drug effect at 10 µM on adult S. mansoni, 24 h ([1]; 10 µM, 24 h, in percentage of DMSO control)	mean drug effect at 10 µM on adult S. mansoni, 48 h ([1]; 10 µM, 48 h, in percentage of DMSO control)	mean drug effect at 10 µM on adult S. mansoni, 72 h ([1]; 10 µM, 72 h, in percentage of DMSO control)	EC50 [5]
O=C(Nc1ncc([N+](=O)[O-])s1)[c-]1cccc1.[Fe+2].c1cc[cH-]c1 [Compound A1]	No drug effect	> 50 µM	> 50 µM	No drug effect	did not alter SH‐SY5Y cell viability; also recorded: inactive	–	–	–	–	–
O=C([c-]1cccc1)N1CCN(c2ncc([N+](=O)[O-])s2)C1=O.[Fe+2].c1cc[cH-]c1 [Compound A2]	more active	8.2 µM	2 µM	–	–	stable	36.97%	46.61%	56.40%	6.35 µM
